Measured values as given in patent US8119651B2, “Compositions useful especially for treatment or prevention of metabolic syndrome” (Biotie Therapies Corp., priority 2004, dated 2012).
Several values for one entry are separate records, joined by “and”; a condition that tells them apart may be missing. Identical values can stand only once. Like-named read-outs stand apart in the source and are kept apart here. One block for each compound: values may come before it.

Key:
[1] = target: T1, SSAO activity of VAP-1 transfected CHO cells (Homo sapiens, UniProt Q16853); assay: Fluorometric detection of SSAO-mediated H2O2 formation (Amplex Red); assay type: cell-based; settings: for Inhibition of SSAO activity (controls): 1 mg/ml, VAP-1 transfected CHO cells
T1 construct: expressed in transfected cells; host or cells: CHO cells
T1 sequence (Q16853 1-763): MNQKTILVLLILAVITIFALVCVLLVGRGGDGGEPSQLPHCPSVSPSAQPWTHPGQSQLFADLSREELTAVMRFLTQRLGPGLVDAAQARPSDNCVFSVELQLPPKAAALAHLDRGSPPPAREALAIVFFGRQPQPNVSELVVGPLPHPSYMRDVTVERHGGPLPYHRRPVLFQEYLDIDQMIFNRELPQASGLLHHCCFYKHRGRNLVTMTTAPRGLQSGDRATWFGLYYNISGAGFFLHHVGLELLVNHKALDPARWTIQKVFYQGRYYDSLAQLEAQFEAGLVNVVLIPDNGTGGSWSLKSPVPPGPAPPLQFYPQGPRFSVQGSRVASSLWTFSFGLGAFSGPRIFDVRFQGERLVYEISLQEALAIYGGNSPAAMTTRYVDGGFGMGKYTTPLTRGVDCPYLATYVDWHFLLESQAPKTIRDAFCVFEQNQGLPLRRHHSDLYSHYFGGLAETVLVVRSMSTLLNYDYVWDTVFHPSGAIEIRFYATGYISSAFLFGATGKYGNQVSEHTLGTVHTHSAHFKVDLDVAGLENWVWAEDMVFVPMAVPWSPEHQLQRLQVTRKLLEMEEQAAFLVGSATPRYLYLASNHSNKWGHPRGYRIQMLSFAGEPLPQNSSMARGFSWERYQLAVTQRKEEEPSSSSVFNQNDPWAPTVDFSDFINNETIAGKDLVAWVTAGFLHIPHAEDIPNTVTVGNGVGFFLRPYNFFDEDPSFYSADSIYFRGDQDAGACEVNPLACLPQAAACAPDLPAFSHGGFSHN
Method: Molecular Probes Europe BV), a highly sensitive and stable probe for H2O2. […] Catalytic reaction was initiated by addition of benzylamine as substrates and H2O2-detecting mixture containing horseradish peroxidase (final concentration 0.8 U/ml) and Amplex Red reagent (60 μM). The plates were incubated for 1-2 hours at 37° C. in the final volume of 250 μl, the bathing medium was clarified by centrifugation and placed in aliquots (200 μl) into white non-phosphorescent microplates (Cliniplate). Fluorescence intensity of the samples was measured (excitation, 545 nm; emission, 590 nm; Tecan ULTRA fluoropolarometer) and H2O2 concentration was calculated from calibration curves generated by serial dilutions of either standard H2O2 or resorufin, the product of the Amplex Red reaction (Molecular Probes).

mice [2] = assay: Glycosylated hemoglobin (HbAlc) in blood of fasted mice; assay type: in vivo; settings: oral methylamine supplementation, 57-59 week old mice
Method: The increases in blood glucose over fasting blood glucose levels at 30, 60, 90, and 120 minutes after glucose challenge (2.0 g IP glucose/kg body weight) are expressed as mean+SEM. (A) Glucose challenge of 26 week old non-transgenic (open symbols) and mTIEhVAP-1 transgenic mice (filled symbols) with normal tap water (solid lines) or with methylamine supplemented water (dashed lines). Significant effects on the rate of glucose clearance were identified by comparing the areas under the curve (AUC) of individual mice with an ANOVA (methylamine p=0.0002 and methylamine/transgene interaction p=0.046) and by comparing glucose levels at individual time points with unpaired Student's t-tests (asterisks, p<0.01 versus non-transgenic mice with normal water; crosses, p<0.02 versus non-transgenic mice with methylamine). (B) Glucose challenge of 10-12 week old transgenic mice with normal tap water (solid line) followed by 16 days of treatment with methylamine supplemented water (squares and dashed lines), and methylamine supplemented water as well as SSAO inhibitor injections (triangles and dashed lines). […] (C) The mean±SEM percent of glycosylated hemoglobin (HbAlc) was determined from the blood of fasted, 57-59 week old non-transgenic (white bars) and transgenic (black bars) mice with (gray strips) or without oral methylamine supplementation. […]

mice [3] = assay: Systolic arterial blood pressure and heart rate, tail cuff method; assay type: in vivo; settings: methylamine supplementation
Method: Systolic arterial blood pressure and heart rate were measured in all of the groups using the tail cuff method. […] A trend for elevated blood pressure was also found with the transgene alone.

mice [4] = assay: Aorta surface area positive for Oil Red O staining (atherosclerosis); assay type: in vivo; settings: methylamine supplementation, versus untreated controls
Method: The percentage of aorta surface area positive for Oil Red O staining was determined for the mice in each group.

[5] = tested on: mTIEhVAP-1 transgenic mice; assay: Glucose challenge of mTIEhVAP-1 transgenic and non-transgenic mice; assay type: in vivo; settings: methylamine supplemented water; 2.0 g IP glucose/kg
Method: The increases in blood glucose over fasting blood glucose levels at 30, 60, 90, and 120 minutes after glucose challenge (2.0 g IP glucose/kg body weight) are expressed as mean±SEM. FIG. 1A: Glucose challenge of 26 week old non-transgenic (open symbols) and mTIEhVAP-1 transgenic mice (filled symbols) with normal tap water (solid lines) or with methylamine supplemented water (dashed lines). FIG. 1B: Glucose challenge of 10-12 week old transgenic mice with normal tap water (solid line) followed by 16 days of treatment with methylamine supplemented water (squares and dashed lines), and methylamine supplemented water as well as SSAO inhibitor injections (triangles and dashed lines). FIG. 1C: The mean±SEM percent of glycosylated hemoglobin (HbAlc) was determined from the blood of fasted, 57-59 week old non-transgenic (white bars) and transgenic (black bars) mice with (gray strips) or without oral methylamine supplementation. […]
The increases in blood glucose over fasting blood glucose levels at 30, 60, 90, and 120 minutes after glucose challenge (2.0 g IP glucose/kg body weight) are expressed as mean+SEM. […] (C) The mean±SEM percent of glycosylated hemoglobin (HbAlc) was determined from the blood of fasted, 57-59 week old non-transgenic (white bars) and transgenic (black bars) mice with (gray strips) or without oral methylamine supplementation. […]

serum VAP-1/SSAO [6] = target: serum VAP-1/SSAO (Homo sapiens, UniProt Q16853)
Method: Amine oxidase activity was assayed radiochemically using [7-^14C]-benzylamine hydrochloride (spec. act. 57 mCi/mmol, Amersham) as a substrate and 25 microliters of serum. […] Potential inhibition of serum VAP-1/SSAO enzymatic activity was measured in presence of indicated concentrations of thiamine. Finally, enzymatic activity of serum VAP-1/SSAO of six volunteers was measured before and after eating vitamin B1 100 mg/day for 5 to 9 days. Similarly serum VAP-1/SSAO activity of four volunteers eating benfothiamine 200 mg/day for four days was measured.

serum VAP-1/SSAO [7] = target: T2, serum VAP-1/SSAO (Homo sapiens, UniProt Q16853); assay: Serum VAP-1/SSAO enzymatic activity of volunteers before and after oral intake
T2 sequence (Q16853 27-763 limits assumed): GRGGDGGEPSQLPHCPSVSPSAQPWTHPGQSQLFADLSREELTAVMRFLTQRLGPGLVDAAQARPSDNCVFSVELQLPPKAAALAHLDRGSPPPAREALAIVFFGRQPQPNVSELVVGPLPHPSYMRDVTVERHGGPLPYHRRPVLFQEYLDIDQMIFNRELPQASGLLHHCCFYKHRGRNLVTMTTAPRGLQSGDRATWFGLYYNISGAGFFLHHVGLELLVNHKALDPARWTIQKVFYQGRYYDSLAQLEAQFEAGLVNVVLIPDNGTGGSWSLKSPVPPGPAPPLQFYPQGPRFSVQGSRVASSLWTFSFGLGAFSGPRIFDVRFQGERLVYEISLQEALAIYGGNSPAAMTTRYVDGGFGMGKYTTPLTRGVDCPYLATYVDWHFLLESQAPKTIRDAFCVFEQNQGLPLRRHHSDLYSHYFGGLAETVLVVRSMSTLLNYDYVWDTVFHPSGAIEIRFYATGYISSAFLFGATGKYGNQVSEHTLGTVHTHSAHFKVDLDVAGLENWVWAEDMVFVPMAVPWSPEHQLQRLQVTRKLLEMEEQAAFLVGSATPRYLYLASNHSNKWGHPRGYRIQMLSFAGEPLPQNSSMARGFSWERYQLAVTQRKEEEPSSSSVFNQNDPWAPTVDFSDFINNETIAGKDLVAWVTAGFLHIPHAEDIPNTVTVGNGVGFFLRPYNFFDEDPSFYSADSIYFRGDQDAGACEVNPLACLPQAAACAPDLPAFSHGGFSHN

[8] = target: T3, amine oxidase, copper containing 3 (AOC3) (Homo sapiens, UniProt Q16853); assay: Enzyme inhibiting activity of FP-1113 versus thiamine (FIG. 3)
T3 sequence (Q16853 1-763): T1 sequence (Q16853 1-763)
Method: The enzyme inhibiting activity was tested as described above.

[9] = volunteers, 100 mg/day for 5 to 9 days

Inhibition of SSAO activity (controls) [1]: did not inhibit the activity
Compound: CC1(C)S[C@@H]2[C@H](NC(=O)[C@H](N)c3ccccc3)C(=O)N2[C@H]1C(=O)O [ampicillin]

Compound: CN [methylamine]
HbAlc levels (mice [2]): decreased | Heart rate (mice [3]): did not affect heart rate | Systolic arterial blood pressure (mice [3]): significantly elevated blood pressure | Percentage of lesion formation in aorta (mice [4]): increased the percentage of lesion formation | Glucose tolerance after glucose challenge [5]: enhance glucose tolerance

inhibition at 63 µg/mL ([1]; CHO, thiamine 63 μg/ml, VAP-1 transfected cells): 10.5 ± 8.5% | inhibition at 125 µg/mL ([1]; CHO, thiamine 125 μg/ml, VAP-1 transfected cells): 26.5 ± 11% | inhibition at 175 µg/mL ([1]; CHO, thiamine 175 μg/ml, VAP-1 transfected cells): 35.5 ± 2.5% | inhibition at 250 µg/mL ([1]; CHO, thiamine 250 μg/ml, VAP-1 transfected cells): 42 ± 2% | inhibition at 375 µg/mL ([1]; CHO, thiamine 375 μg/ml, VAP-1 transfected cells): 47 ± 9% | inhibition at 500 µg/mL ([1]; CHO, thiamine 500 μg/ml, VAP-1 transfected cells): 61.5 ± 2.5% | Decrease of serum VAP-1/SSAO activity in vitro (serum VAP-1/SSAO [6]; 1 mg/ml): 87% | Decrease of serum VAP-1/SSAO activity in vitro (serum VAP-1/SSAO [6]; 200 micrograms/ml): 32% | Decrease of serum VAP-1/SSAO activity in vitro (serum VAP-1/SSAO [6]; 400 micrograms/ml): 39% | Decrease of serum VAP-1/SSAO activity in vitro (serum VAP-1/SSAO [6]; 800 micrograms/ml): 70% | Decrease of VAP-1 enzyme activity at the end of the experiment, mean of responders (serum VAP-1/SSAO [7]; [9]): 19% | Volunteers responding (serum VAP-1/SSAO [7]; [9]): Four of the six volunteers responded | Decrease of VAP-1 enzyme activity at the end of the experiment, individual responders (serum VAP-1/SSAO [7]; volunteers, 100 mg/day for 5 to 9 days, listed as vitamin B1): 25% and 2% and 32% and 16%
Compound: Cc1ncc(C[n+]2csc(CCO)c2C)c(N)n1 [Thiamine, thiamine]

SSAO inhibition compared with thiamine [8]: stronger SSAO-inhibitor than thiamine
Compound: Cc1c(CCO)sc[n+]1Cc1ccccc1N.Cl.[Cl-] [FP-1113, 3-(2-aminobenzyl)-5-(2-hydroxyethyl)-4-methyl-thiazolium Chloride Hydrochloride]

Compound: penicillin
Inhibition of SSAO activity (controls) [1]: did not inhibit the activity

Decrease of SSAO activity, each individual (serum VAP-1/SSAO [7]; four volunteers, 200 mg/day for four days): 9% and 24% and 8% and 27%
Compound: C/C(=C(\CCOP(=O)(O)O)SC(=O)c1ccccc1)N(C=O)Cc1cnc(C)nc1N [benfothiamine, benfotiamine]
